Test results: patent publication US8697739B2, “Bicyclic acetyl-CoA carboxylase inhibitors and uses thereof” (Novartis AG, priority 2010, dated 2014)

target: T1, human acetyl-CoA carboxylase 2 (ACC2) (Homo sapiens, UniProt O00763); experiment: Acetyl-CoA carboxylase enzyme assay (malonyl-CoA formation by LC/MS/MS); format: biochemical; conditions: recombinant human ACC2 (aa 144-2458); read-out: IC50 ACC2
T1 construct: The cDNA encoding amino acids 144 to 2458 of human acetyl-CoA carboxylase 2; made in house; host or cells: Sf9 insect cells (baculovirus, pFastBac1)
T1 sequence (O00763 144-2458): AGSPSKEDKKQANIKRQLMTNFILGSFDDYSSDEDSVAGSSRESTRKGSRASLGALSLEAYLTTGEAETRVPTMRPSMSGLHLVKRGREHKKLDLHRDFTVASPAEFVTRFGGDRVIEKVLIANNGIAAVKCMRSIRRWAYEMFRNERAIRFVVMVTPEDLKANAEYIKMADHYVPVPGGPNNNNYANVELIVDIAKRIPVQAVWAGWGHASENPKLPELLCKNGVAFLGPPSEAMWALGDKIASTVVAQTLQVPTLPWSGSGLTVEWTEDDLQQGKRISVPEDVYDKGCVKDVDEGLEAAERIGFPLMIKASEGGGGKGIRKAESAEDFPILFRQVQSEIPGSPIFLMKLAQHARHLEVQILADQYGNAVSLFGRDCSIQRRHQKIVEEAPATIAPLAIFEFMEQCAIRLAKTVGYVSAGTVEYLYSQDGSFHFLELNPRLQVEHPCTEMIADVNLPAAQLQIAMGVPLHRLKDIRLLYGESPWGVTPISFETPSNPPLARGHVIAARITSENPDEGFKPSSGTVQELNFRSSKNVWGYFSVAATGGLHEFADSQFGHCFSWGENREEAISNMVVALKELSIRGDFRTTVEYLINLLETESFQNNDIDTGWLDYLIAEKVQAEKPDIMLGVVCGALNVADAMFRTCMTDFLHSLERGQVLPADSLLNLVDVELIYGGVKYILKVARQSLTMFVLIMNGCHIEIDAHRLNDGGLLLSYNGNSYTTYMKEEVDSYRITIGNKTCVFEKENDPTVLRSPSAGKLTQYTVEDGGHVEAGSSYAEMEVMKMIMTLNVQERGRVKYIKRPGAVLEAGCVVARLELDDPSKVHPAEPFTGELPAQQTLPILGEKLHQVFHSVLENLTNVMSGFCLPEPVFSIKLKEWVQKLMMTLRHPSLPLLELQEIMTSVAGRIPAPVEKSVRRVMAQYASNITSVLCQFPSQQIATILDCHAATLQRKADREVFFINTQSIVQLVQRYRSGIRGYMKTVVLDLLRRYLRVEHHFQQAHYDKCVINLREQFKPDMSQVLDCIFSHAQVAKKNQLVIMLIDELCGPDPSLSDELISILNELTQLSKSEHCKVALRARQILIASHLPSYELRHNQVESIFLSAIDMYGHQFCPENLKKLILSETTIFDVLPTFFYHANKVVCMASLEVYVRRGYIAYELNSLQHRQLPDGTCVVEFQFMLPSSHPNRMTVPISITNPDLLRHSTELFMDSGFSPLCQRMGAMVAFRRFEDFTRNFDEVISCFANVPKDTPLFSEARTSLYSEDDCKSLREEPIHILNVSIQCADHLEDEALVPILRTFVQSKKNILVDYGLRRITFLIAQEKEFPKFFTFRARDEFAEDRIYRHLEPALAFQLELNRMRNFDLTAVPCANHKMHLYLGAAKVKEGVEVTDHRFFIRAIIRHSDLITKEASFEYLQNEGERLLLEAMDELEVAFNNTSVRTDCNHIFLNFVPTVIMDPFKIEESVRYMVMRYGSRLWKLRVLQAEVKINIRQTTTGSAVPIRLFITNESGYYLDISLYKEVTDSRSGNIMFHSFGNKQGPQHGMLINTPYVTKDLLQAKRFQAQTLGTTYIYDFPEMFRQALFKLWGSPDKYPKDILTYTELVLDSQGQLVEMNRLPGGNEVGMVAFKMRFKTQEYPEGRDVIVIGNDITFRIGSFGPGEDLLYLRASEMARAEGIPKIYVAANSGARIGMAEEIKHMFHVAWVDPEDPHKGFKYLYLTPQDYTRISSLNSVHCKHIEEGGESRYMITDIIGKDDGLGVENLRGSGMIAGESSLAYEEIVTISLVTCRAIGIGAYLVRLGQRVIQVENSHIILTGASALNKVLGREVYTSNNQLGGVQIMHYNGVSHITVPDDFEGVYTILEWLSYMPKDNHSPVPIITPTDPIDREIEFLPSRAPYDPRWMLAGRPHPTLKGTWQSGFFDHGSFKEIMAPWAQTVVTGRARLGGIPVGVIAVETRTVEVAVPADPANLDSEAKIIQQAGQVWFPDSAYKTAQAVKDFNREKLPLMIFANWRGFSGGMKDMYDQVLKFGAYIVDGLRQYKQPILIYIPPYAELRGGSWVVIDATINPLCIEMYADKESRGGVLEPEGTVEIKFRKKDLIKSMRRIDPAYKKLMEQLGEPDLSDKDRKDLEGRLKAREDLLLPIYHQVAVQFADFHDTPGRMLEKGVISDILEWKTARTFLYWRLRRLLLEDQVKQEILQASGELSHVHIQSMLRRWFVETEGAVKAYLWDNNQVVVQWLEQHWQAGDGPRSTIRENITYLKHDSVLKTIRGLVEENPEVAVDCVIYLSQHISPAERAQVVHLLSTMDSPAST
Text: The cDNA encoding amino acids 144 to 2458 of human acetyl-CoA carboxylase 2 (ACC2, GenBank Accession #NM_001093) was cloned into the SalI and NotI sites of pFastBac1 (Invitrogen; Carlsbad, Calif.). The resulting plasmid was used to generate a recombinant ACC2 baculovirus that was amplified and titered according to the protocols in the Bac-to-Bac baculovirus expression system manual (Invitrogen). The titered virus was used to infect Sf9 cells grown in Ex-Cell 420 serum-free medium (JRH Biosciences; Lenexa, Kans.). At 48 hours post-infection, the cells were harvested and stored at −80° C. until purification. ACC2 was purified using ammonium sulfate precipitation and anion exchange chromatography.
The enzymatic assay was run as follows: 30 μL of reaction buffer (100 mM HEPES pH 7.5, 20 mM MgCl2, 20 mM potassium citrate, 2 mM DTT) was added to a 384-well microtiter plate followed by 2 μL of the test compound (or 100% DMSO control). ACC2 protein (10 μL of a 50 nM working solution) was added to plate, which was incubated at room temperature for 15 minutes. A 30 μL addition of substrate solution (50 μM acetyl-CoA, 120 μM ATP, 2 mM KHCO3) was used to initiate the reactions which were quenched with 6% acetic acid (40 μL). ACC catalyzed malonyl-CoA formation was detected by LC/MS/MS using a Cohesive Technologies LX Series multiplex LC/MSIMS system configured with four binary pumps (Agilent Technologies; Palo Alto, Calif.), a dual arm autosampler (Leap Technologies; Cary, N.C.), and one Quattro Micro triple quadrupole mass spectrometer (Waters, Milford, Mass.), all run by Aria Software version 1.5 (Cohesive Technologies; Franklin, Mass.). Four samples were injected (20 μL) onto four Phenosphere NEXT C18 30×2 mm 5 μm columns (Phenomenex; Torrance, Calif.), eluted by four separate pumps, running identical gradients, through a column switching manifold with the one outlet fitted to the electrospray (ESI) source. Malonyl-CoA was eluted with 5 mM ammonium acetate, pH 4.5 (Buffer A) and 100% acetonitrile (Buffer B) via a step gradient. Argon was used as the collision gas and the following species were monitored via MRM detection: malonyl-CoA (853.8>346.9), internal standard (A: [^13C3]-malonyl-CoA, 857>350). The lower limit of detection is 0.3 uM for malonyl-CoA in this assay.

Structure (SMILES) | IC50 [nM]
C[C@@H](NC(=O)[C@H]1CC[C@H](NS(=O)(=O)c2cnc3nc(-c4ccccc4)sc3c2)CC1)c1ccc(F)cc1 [Example 52, (1r,4R)-N-((R)-1-(4-fluorophenyl)ethyl)-4-(2-phenylthiazolo[4,5-b]pyridine-6-sulfonamido)cyclohexanecarboxamide] | 435
Cn1ccc2cc(S(=O)(=O)N[C@H]3CC[C@H](C(=O)N[C@H](CO)c4ccccc4)CC3)ccc21 [Example 670, (1r,4S)-N-((S)-2-hydroxy-1-phenylethyl)-4-(1-methyl-1H-indole-5-sulfonamido)cyclohexanecarboxamide] | 66
Cn1c(C2CC2)c(C#N)c2ccc(S(=O)(=O)N[C@H]3CC[C@H](C(=O)N4CCCC4C(C)(C)C)CC3)cc21 (some centres unmarked) [Example 390, N-((1r,4r)-4-(2-tert-butylpyrrolidine-1-carbonyl)cyclohexyl)-3-cyano-2-cyclopropyl-1-methyl-1H-indole-6-sulfonamide] | 10
CC(O)Cc1cc2ccc(S(=O)(=O)N[C@H]3CC[C@H](C(=O)N[C@H](C)c4ccc(F)cc4)CC3)cc2[nH]1 (stereo partly drawn) [Example 316, (1r,4R)-N-((R)-1-(4-fluorophenyl)ethyl)-4-(2-(2-hydroxypropyl)-1H-indole-6-sulfonamido)cyclohexanecarboxamide] | 110
O=C(Nc1ccc2ncccc2c1)[C@H]1CC[C@H](NS(=O)(=O)c2ccc3[nH]c(-c4ccccc4)nc3c2)CC1 [Example 647, (1r,4r)-4-(2-phenyl-1H-benzo[d]imidazole-5-sulfonamido)-N-(quinolin-6-yl)cyclohexanecarboxamide] | 726
Cn1c(C2CC2)cc2ccc(S(=O)(=O)N[C@H]3CC[C@](C)(C(=O)N4CCOCC4)CC3)cc21 [Example 24, 2-cyclopropyl-1-methyl-N-((1r,4r)-4-methyl-4-(morpholine-4-carbonyl)cyclohexyl)-1H-indole-6-sulfonamide] | 230
C[C@@H](NC(=O)[C@H]1CC[C@H](NS(=O)(=O)c2ccc3c(c2)C(=O)NCC3)CC1)c1ccc(F)cc1 [Example 223, (1r,4R)-N-((R)-1-(4-fluorophenyl)ethyl)-4-(1-oxo-1,2,3,4-tetrahydroisoquinoline-7-sulfonamido)cyclohexanecarboxamide] | 205
O=C([C@H]1CC[C@H](NS(=O)(=O)c2ccc3c(c2)NC(C(F)(F)F)CC3)CC1)N1CCNCC1c1ccccc1 (some centres unmarked) [Example 187, N-((1r,4r)-4-(2-phenylpiperazine-1-carbonyl)cyclohexyl)-2-(trifluoromethyl)-1,2,3,4-tetrahydroquinoline-7-sulfonamide] | 245
CC(NC(=O)[C@H]1CC[C@H](NS(=O)(=O)c2cnc3ccccc3c2)CC1)c1ccc(F)c(F)c1 (some centres unmarked) [Example 66, (1r,4r)-N-(1-(3,4-difluorophenyl)ethyl)-4-(quinoline-3-sulfonamido)cyclohexanecarboxamide] | 205
C[C@H](NC(=O)[C@H]1CC[C@@H](NS(=O)(=O)c2cnc3c(c2)NCCN3)CC1)c1ccc(F)cc1 [Example 198, (1s,4S)-N-((R)-1-(4-fluorophenyl)ethyl)-4-(1,2,3,4-tetrahydropyrido[3,2-b]pyrazine-7-sulfonamido)cyclohexanecarboxamide] | > 35000
COc1ccc(Nc2nc3cc(S(=O)(=O)Nc4ccc(C(=O)OC(C)C)cc4)ccc3[nH]2)cc1 [Example 523, isopropyl 4-(2-(4-methoxyphenylamino)-1H-benzo[d]imidazole-5-sulfonamido)benzoate] | 463
CCOc1ccc2cc(S(=O)(=O)N[C@H]3CC[C@H](C(=O)N4CCN(C(=O)OC(C)(C)C)C[C@@H]4C(=O)OC)CC3)ccc2n1 [Example 235, (R)-1-tert-butyl 3-methyl 4-((1r,4R)-4-(2-ethoxyquinoline-6-sulfonamido)cyclohexanecarbonyl)piperazine-1,3-dicarboxylate] | 95
CCOc1ccc2cc(S(=O)(=O)NC3CCC(C(=O)NC(CO)c4ccccc4)CC3)ccc2n1 [Example 205, (1r,4S)-4-(2-ethoxyquinoline-6-sulfonamido)-N-((S)-2-hydroxy-1-phenylethyl)cyclohexanecarboxamide] | 20
CC(C)(O)[C@H]1CCCN1C(=O)[C@H]1CC[C@H](NS(=O)(=O)c2ccc3cc(-c4ccccc4)[nH]c3c2)CC1 [Example 465, N-((1R,4r)-4-((R)-2-(2-hydroxypropan-2-yl)pyrrolidine-1-carbonyl)cyclohexyl)-2-phenyl-1H-indole-6-sulfonamide] | 20
Cn1c(-c2ccc(CO)cc2)cc2ccc(S(=O)(=O)N[C@H]3CC[C@H](C(=O)N4CCN[C@H](C(F)(F)F)C4)CC3)cc21 [Example 337, 2-(4-(hydroxymethyl)phenyl)-1-methyl-N-((1S,4r)-4-((S)-3-(trifluoromethyl)piperazine-1-carbonyl)cyclohexyl)-1H-indole-6-sulfonamide] | 20
Cn1c(-c2ccccc2)cc2cc(S(=O)(=O)N[C@H]3CC[C@H](C(=O)N4CC(C(=O)O)CCC4c4ccccc4)CC3)ccc21 (some centres unmarked) [Example 91, 1-((1r,4r)-4-(1-methyl-2-phenyl-1H-indole-5-sulfonamido)cyclohexanecarbonyl)-6-phenylpiperidine-3-carboxylic acid] | 30
CC(C)OC(=O)c1ccc(NS(=O)(=O)c2ccc3[nH]c(Nc4ccc5nsnc5c4)nc3c2)cc1 [Example 527, isopropyl 4-(2-(benzo[c][1,2,5]thiadiazol-5-ylamino)-1H-benzo[d]imidazole-5-sulfonamido)benzoate] | 169
COCCN(C(=O)[C@H]1CC[C@H](NS(=O)(=O)c2ccc3[nH]c(-c4ccccc4)nc3c2)CC1)C(C)C [Example 675, (1r,4R)-N-isopropyl-N-(2-methoxyethyl)-4-(2-phenyl-1H-benzo[d]imidazole-5-sulfonamido)cyclohexanecarboxamide] | 105
O=C([C@H]1CC[C@H](NS(=O)(=O)c2ccc3[nH]c(-c4ccccc4)nc3c2)CC1)N1CCN(c2ccccc2)CC1 [Example 617, 2-phenyl-N-((1r,4r)-4-(4-phenylpiperazine-1-carbonyl)cyclohexyl)-1H-benzo[d]imidazole-5-sulfonamide] | 996
COc1ccc(Nc2nc3cc(S(=O)(=O)Nc4ccc(-c5nnc(C(C)(C)C)o5)cc4)ccc3[nH]2)cc1 [Example 604, N-(4-(5-tert-butyl-1,3,4-oxadiazol-2-yl)phenyl)-2-(4-methoxyphenylamino)-1H-benzo[d]imidazole-5-sulfonamide] | 676
CN(C)CCNC(=O)[C@H]1CC[C@H](NS(=O)(=O)c2ccc3[nH]c(-c4ccccc4)nc3c2)CC1 [Example 631, (1r,4r)-N-(2-(dimethylamino)ethyl)-4-(2-phenyl-1H-benzo[d]imidazole-5-sulfonamido)cyclohexanecarboxamide] | 10300
Cc1cccc(C)c1Nc1nc2cc(S(=O)(=O)Nc3ccc(C(=O)OC(C)C)cc3)ccc2[nH]1 [Example 540, isopropyl 4-(2-(2,6-dimethylphenylamino)-1H-benzo[d]imidazole-5-sulfonamido)benzoate] | > 139000
C[C@@H](NC(=O)[C@H]1CC[C@H](NS(=O)(=O)c2cnc3c(c2)NCCN3)CC1)c1ccc(F)cc1 [Example 33, (1r,4R)—N—((R)-1-(4-fluorophenyl)ethyl)-4-(1,2,3,4-tetrahydropyrido[3,2-b]pyrazine-7-sulfonamido)cyclohexanecarboxamide] | 140
CCCOC(=O)c1ccc(OS(=O)(=O)c2ccc3nc(-c4ccccc4)[nH]c3c2)cc1 [Example 493, propyl 4-(2-phenyl-1H-benzo[d]imidazol-6-ylsulfonyloxy)benzoate] | > 139000
CC(C)OC(=O)c1ccc(NS(=O)(=O)c2ccc3nc(-c4ccc(S(C)(=O)=O)cc4)[nH]c3c2)cc1 [Example 514, isopropyl 4-(2-(4-(methylsulfonyl)phenyl)-1H-benzo[d]imidazole-6-sulfonamido)benzoate] | 838
CC(C)(C)OC(=O)N1CCN(C(=O)[C@H]2CC[C@H](NS(=O)(=O)c3ccc4cc(-c5ccccc5C(F)(F)F)[nH]c4c3)CC2)[C@@H](c2ccccc2)C1 [Example 328, (S)-tert-butyl 3-phenyl-4-((1r,4S)-4-(2-(2-(trifluoromethyl)phenyl)-1H-indole-6-sulfonamido)cyclohexanecarbonyl)piperazine-1-carboxylate] | 55
